Measurements published in patent publication US12544395B2, “Combination compositions comprising a beta-lactamase inhibitor and uses thereof” (priority 2018, dated 2026).
≈ marks a conversion by molar mass, not a printed value. Like-named read-outs stand apart in the source and are kept apart here.

What was measured:
Format in all cases: cell-based
K. pneumoniae KI (KCl) = experiment: Broth microdilution MIC (strain enzymes: TEM-10); conditions: Klebsiella pneumoniae; alone; read-out: MIC of cefdinir (CDR)
K. pneumoniae 329633 = experiment: Broth microdilution MIC (strain enzymes: SHV-5, TEM-1); conditions: Klebsiella pneumoniae, 329633; alone; read-out: MIC of cefdinir (CDR)
K. pneumoniae 170375 = experiment: Broth microdilution MIC (strain enzymes: SHV-12, CTX-M15 and TEM-1); conditions: Klebsiella pneumoniae, 170375; alone; read-out: MIC of cefdinir (CDR)
K. pneumoniae KP 4 = experiment: Broth microdilution MIC (strain enzymes: SHV-2a, SHV-5, TEM-1); conditions: Klebsiella pneumoniae, KP4; alone; read-out: MIC of cefdinir (CDR)
E. coli SI-PBLII = experiment: Broth microdilution MIC (strain enzymes: CTX-M2, TEM-1); conditions: Escherichia coli; alone; read-out: MIC of cefdinir (CDR)
E. coli SI-LP377 = experiment: microbe, parasite or virus in culture; conditions: Escherichia coli, SILP377, read-out: MIC of cefdinir (CDR)
K. pneumoniae ESBL 8 #1 = experiment: Broth microdilution MIC (strain enzymes: TEM-1, SHV-12); conditions: Klebsiella pneumoniae; alone; read-out: MIC of cefdinir (CDR)
K. pneumoniae 3151 = experiment: Broth microdilution MIC (strain enzymes: SHV-12, TEM-1); conditions: Klebsiella pneumoniae, 3151; alone; read-out: MIC of cefdinir (CDR)
E. coli SI-M004 = experiment: Broth microdilution MIC (strain enzymes: SHV-2, GES-12); conditions: Escherichia coli, SIM004; alone; read-out: MIC of cefdinir (CDR)
E. coli ESBL 2 = experiment: Broth microdilution MIC (strain enzymes: TEM-1); conditions: Escherichia coli, ESBL2; alone; read-out: MIC of cefdinir (CDR)
K. pneumoniae 153239 = experiment: Broth microdilution MIC (strain enzymes: SHV-11, TEM-1); conditions: Klebsiella pneumoniae, 153239; alone; read-out: MIC of cefdinir (CDR)
K. oxytoca 496 #2 = experiment: Broth microdilution MIC (strain enzymes: SHV-105, TEM-1); conditions: Klebsiella oxytoca; alone; read-out: MIC of cefdinir (CDR)
K. oxytoca 169219 = experiment: Broth microdilution MIC (strain enzymes: TEM-1, CTXM-15); conditions: Klebsiella oxytoca, 169219; alone; read-out: MIC of cefdinir (CDR)
K. pneumoniae KP 8 = experiment: Broth microdilution MIC (strain enzymes: TEM-10, TEM-1, CTX-M15); conditions: Klebsiella pneumoniae, KP8; alone; read-out: MIC of cefdinir (CDR)
E. coli 3174 = experiment: Broth microdilution MIC (strain enzymes: TEM-1, CTXM-15); conditions: Escherichia coli, 3174; alone; read-out: MIC of cefdinir (CDR)
K. pneumoniae ESBL 7 #1 = experiment: Broth microdilution MIC (strain enzymes: SHV-12, TEM-1); conditions: Klebsiella pneumoniae; alone; read-out: MIC of cefdinir (CDR)
[1] = system: panel of ESBL-producing Enterobacteriaceae (40 strains); experiment: Broth microdilution MIC50/MIC90 summary over the panel
K. pneumoniae KPN 508 = experiment: Broth microdilution MIC (strain enzymes: SHV-7, TEM-1); conditions: Klebsiella pneumoniae, KPN508; alone; read-out: MIC of cefdinir (CDR)
K. pneumoniae KP 3 = experiment: Broth microdilution MIC (strain enzymes: SHV-1, TEM-1); conditions: Klebsiella pneumoniae, KP3; alone; read-out: MIC of cefdinir (CDR)
E. coli SI-V502 = experiment: Broth microdilution MIC (strain enzymes: TEM-29, CTX-M15); conditions: Escherichia coli, SIV502; alone; read-out: MIC of cefdinir (CDR)
K. pneumoniae ESBL 7 #2 = experiment: Broth microdilution MIC (strain enzymes: SHV-12, CTX-M15, TEM-1); conditions: Klebsiella pneumoniae; alone; read-out: MIC of cefdinir (CDR)
E. coli ESBL 5 = experiment: Broth microdilution MIC (strain enzymes: CTX-M15, TEM-1); conditions: Escherichia coli, ESBL5; alone; read-out: MIC of cefdinir (CDR)
E. coli 2150 = experiment: Broth microdilution MIC (strain enzymes: SHV-3, TEM-1); conditions: Escherichia coli, 2150; alone; read-out: MIC of cefdinir (CDR)
K. pneumoniae 319478 = experiment: Broth microdilution MIC (strain enzymes: SHV-12, CTX-M3 and TEM-1); conditions: Klebsiella pneumoniae, 319478; alone; read-out: MIC of cefdinir (CDR)
E. coli Si-FDL-GES = experiment: microbe, parasite or virus in culture; conditions: Escherichia coli, read-out: MIC of cefdinir (CDR)
K. pneumoniae SI-KP NO30 = experiment: Broth microdilution MIC (strain enzymes: TEM-26b, SHV-60, SHV-26); conditions: Klebsiella pneumoniae, SIKPNO30; alone; read-out: MIC of cefdinir (CDR)
K. pneumoniae 304487 = experiment: Broth microdilution MIC (strain enzymes: SHV-12,TEM-1); conditions: Klebsiella pneumoniae, 304487; alone; read-out: MIC of cefdinir (CDR)
E. coli 25922 = experiment: Broth microdilution MIC (strain enzymes: None detected); conditions: Escherichia coli, 25922; alone; read-out: MIC of cefdinir (CDR)
E. coli SI-NO36 = experiment: Broth microdilution MIC (strain enzymes: SHV-11, TEM-1); conditions: Escherichia coli, SINO36; alone; read-out: MIC of cefdinir (CDR)
E. coli 3327 = experiment: Broth microdilution MIC (strain enzymes: TEM-1, SHV-12); conditions: Escherichia coli, 3327; alone; read-out: MIC of cefdinir (CDR)
E. coli SI-AIRT-4 = experiment: Broth microdilution MIC (strain enzymes: TEM-1); conditions: Escherichia coli, SIAIRT4; alone; read-out: MIC of cefdinir (CDR)
E. coli 1924 = experiment: Broth microdilution MIC (strain enzymes: TEM-12); conditions: Escherichia coli, 1924; alone; read-out: MIC of cefdinir (CDR)
E. coli 2806 = experiment: Broth microdilution MIC (strain enzymes: SHV-12, TEM-1); conditions: Escherichia coli, 2806; alone; read-out: MIC of cefdinir (CDR)
K. pneumoniae ESBL 8 #2 = experiment: as above; conditions: Klebsiella pneumoniae; alone; read-out: MIC of cefdinir (CDR)
K. pneumoniae 115468 = experiment: Broth microdilution MIC (strain enzymes: TEM-1); conditions: Klebsiella pneumoniae, 115468; alone; read-out: MIC of cefdinir (CDR)
E. coli ESBL 4 = experiment: Broth microdilution MIC (strain enzymes: CTX-M15, TEM-1); conditions: Escherichia coli, ESBL4; alone; read-out: MIC of cefdinir (CDR)
K. pneumoniae 11/23 LF#2 = experiment: microbe, parasite or virus in culture; conditions: Klebsiella pneumoniae, read-out: MIC of cefdinir (CDR)
K. oxytoca 176877 = experiment: Broth microdilution MIC (strain enzymes: SHV-105); conditions: Klebsiella oxytoca, 176877; alone; read-out: MIC of cefdinir (CDR)
E. coli BAS 1 = experiment: Broth microdilution MIC (strain enzymes: none detected); conditions: Escherichia coli, BAS1; alone; read-out: MIC of cefdinir (CDR)
K. pneumoniae ESBL 10 = experiment: Broth microdilution MIC (strain enzymes: SHV-12, TEM-1); conditions: Klebsiella pneumoniae, ESBL10; alone; read-out: MIC of cefdinir (CDR)
K. pneumoniae BAA 1705 = experiment: Broth microdilution MIC (strain KPC-producing); conditions: Klebsiella pneumoniae, BAA1705; alone; read-out: MIC of cefdinir (CDR)

Structure (SMILES): C=CC1=C(C(=O)O)N2C(=O)[C@@H](NC(=O)/C(=N\O)c3csc(N)n3)[C@H]2SC1 [Cefdinir, cefdinir, reference compound]
- MIC (K. pneumoniae KI (KCl)): 1 µg/mL
- MIC (K. pneumoniae 329633): 16 µg/mL
- MIC (K. pneumoniae 170375): > 32 µg/mL
- MIC (K. pneumoniae KP 4): 8 µg/mL
- MIC (E. coli SI-PBLII): 2 µg/mL
- MIC (E. coli SI-LP377): > 32 µg/mL
- MIC (K. pneumoniae ESBL 8 #1): 16 µg/mL
- MIC (K. pneumoniae 3151): > 32 µg/mL
- MIC (E. coli SI-M004): 32 µg/mL
- MIC (E. coli ESBL 2): > 32 µg/mL
- MIC (K. pneumoniae 153239): 2 µg/mL
- MIC (K. oxytoca 496 #2): 16 µg/mL
- MIC (K. oxytoca 169219): > 32 µg/mL
- MIC (K. pneumoniae KP 8): 0.5 µg/mL
- MIC (E. coli 3174): 1 µg/mL
- MIC (K. pneumoniae ESBL 7 #1): 32 µg/mL
- MIC50 ([1]; read-out: Cefdinir MIC50): 16 µg/mL (≈ 40.5 µM)
- MIC90 ([1]; read-out: Cefdinir MIC90): > 32 µg/mL
- MIC (K. pneumoniae KPN 508): 32 µg/mL
- MIC (K. pneumoniae KP 3): 4 µg/mL
- MIC (E. coli SI-V502): 2 µg/mL
- MIC (K. pneumoniae ESBL 7 #2): > 32 µg/mL
- MIC (E. coli ESBL 5): > 32 µg/mL
- MIC (E. coli 2150): > 32 µg/mL
- MIC (K. pneumoniae 319478): > 32 µg/mL
- MIC (E. coli Si-FDL-GES): > 32 µg/mL
- MIC (K. pneumoniae SI-KP NO30): 0.5 µg/mL
- MIC (K. pneumoniae 304487): 8 µg/mL
- MIC (E. coli 25922): 0.5 µg/mL
- MIC (E. coli SI-NO36): 4 µg/mL
- MIC (E. coli 3327): 16 µg/mL
- MIC (E. coli SI-AIRT-4): 0.25 µg/mL
- MIC (E. coli 1924): 2 µg/mL
- MIC (E. coli 2806): 4 µg/mL
- MIC (K. pneumoniae ESBL 8 #2): 16 µg/mL
- MIC (K. pneumoniae 115468): 8 µg/mL
- MIC (E. coli ESBL 4): > 32 µg/mL
- MIC (K. pneumoniae 11/23 LF#2): 2 µg/mL
- MIC (K. oxytoca 176877): 8 µg/mL
- MIC (E. coli BAS 1): > 32 µg/mL
- MIC (K. pneumoniae ESBL 10): 16 µg/mL
- MIC (K. pneumoniae BAA 1705): > 32 µg/mL

Structure (SMILES): COCC1=C(C(=O)O)N2C(=O)[C@@H](NC(=O)/C(=N\OC)c3csc(N)n3)[C@H]2SC1 [Cefpodoxime, cefpodoxime, reference compound]
- MIC50 ([1]; read-out: Cefpodoxime MIC50): > 32 µg/mL
- MIC90 ([1]; read-out: Cefpodoxime MIC90): > 32 µg/mL
